In brackets after ≈: the same amount, converted by molar mass.
Experiments:
[1] = Acute toxicity on rats via oral administration; conditions: 4500 mg/kg
Protocol: Both mice and rats take drugs orally (levoisovalerylspiramycin I, II and III prepared in Embodiment 1)
After observing the mice and rats for two days before test, and those without abnormal conditions is carried out test. Don't give anything to eat to mice and rats overnight before test. […] […] Observe those taking drugs for one week for toxic reaction and death.

[2] = system: streptococcus pneumoniae18; experiment: Curative effect on mouse with abdominal infection (ED50); assay type: in vivo, streptococcus pneumoniae; conditions: Streptococcus, 168 h, streptococcus pneumoniae18, challenging dose 9.6 × 10^4 CFU/0.5 ml, deaths in 7 days, Bliss, read-out: ED50
Protocol: (§1) Test method: preparation of infection bacterial liquid: taking out the test bacterial liquid which is kept in a refrigerator at −80[…] to room temperature for about 1 h, then inoculating streptococcus pneumonia, pyogenic streptococcus and enterococcus absorbing 0.1 ml bacterial liquid respectively to 2 ml MH broth (add 10% inactivated horse serum), and inoculating 0.1 ml bacterial liquid of staphylococcus aureus to 2 ml MH broth according to the same method above; putting it in an incubator at 37[…] to be cultivated for 18 h, to obtain original bacterial liquid; diluting the original bacterial liquid with 5% gastric mucin to make animals infected with 100% lethal bacteria, to obtain infection bacterial liquid.
(§2) The clinical route of administration of carrimycin is proposed to be oral administration, thus intragastric administration is adopted in carrimychin test. Levoisovalerylspiramycin I (obtained in Embodiment 1) and of crystalline compound of levoisovalerylspiramycin I (prepared in Embodiment 27) are fed to animals via […].
(§3) After the mice are infected, respectively feed each mouse 0.2 ml via intragastric administration at 0.5 to 6 h, and they have no adverse reaction. Observe the number of deaths in 7 days, and calculate the 50% effective dose (ED50) of each drug for the infected mouse and compare the protective effect of drugs by Bliss program.

[3] = system: streptococcus pneumoniae3; experiment: as above; assay type: in vivo, streptococcus pneumoniae; conditions: Streptococcus, 168 h, streptococcus pneumoniae3, challenging dose 6.4 × 10^4 CFU/0.5 ml, deaths in 7 days, Bliss, read-out: ED50
Protocol: as §1, §2, §3

[4] = system: streptococcus pneumoniae57; experiment: as above; assay type: in vivo, streptococcus pneumoniae; conditions: Streptococcus, 168 h, streptococcus pneumoniae57, challenging dose 8.8 × 10^4 CFU/0.5 ml, deaths in 7 days, Bliss, read-out: ED50
Protocol: as §1, §2, §3

staphylococcus aureus12 = experiment: as above; assay type: in vivo, staphylococcus aureus; conditions: Staphylococcus, AUREUS12, 168 h, staphylococcus aureus12, challenging dose 4.8 × 10^4 CFU/0.5 ml, deaths in 7 days, Bliss, read-out: ED50
Protocol: as §1, §2, §3

staphylococcus aureus16 = experiment: as above; assay type: in vivo, staphylococcus aureus; conditions: Staphylococcus, AUREUS16, 168 h, staphylococcus aureus16, challenging dose 5.2 × 10^3 CFU/0.5 ml, deaths in 7 days, Bliss, read-out: ED50
Protocol: as §1, §2, §3

staphylococcus aureus21 [5] = experiment: as above; assay type: in vivo, staphylococcus aureus; conditions: Staphylococcus, AUREUS21, 168 h, staphylococcus aureus21, challenging dose 4.2 × 10^4 CFU/0.5 ml, deaths in 7 days, Bliss, read-out: ED50
Protocol: as §1, §2, §3

staphylococcus aureus76 = experiment: as above; assay type: in vivo, staphylococcus aureus; conditions: Staphylococcus, AUREUS76, 168 h, staphylococcus aureus76, challenging dose 5.8 × 10^4 CFU/0.5 ml, deaths in 7 days, Bliss, read-out: ED50
Protocol: as §1, §2, §3

[6] = system: pyogenic streptococcus 772; experiment: MIC against the infecting test organism; assay type: cell-based; conditions: read-out: MIC
[7] = system: pyogenic streptococcus 102; experiment: MIC against the infecting test organism; assay type: cell-based; conditions: read-out: MIC
[8] = system: pyogenic streptococcus 119; experiment: MIC against the infecting test organism; assay type: cell-based; conditions: read-out: MIC
staphylococcus aureus21 [9] = experiment: MIC against the infecting test organism; assay type: cell-based, staphylococcus aureus; conditions: read-out: MIC
[10] = system: pyogenic streptococcus (93); experiment: Clinical isolates, agar double dilution method; assay type: cell-based; conditions: 93 clinical isolates of pyogenic streptococcus
[11] = system: staphylococcus aureus (155); experiment: Clinical isolates, agar double dilution method; assay type: cell-based; conditions: 155 clinical isolates of staphylococcus aureus
S. epidermidis (115) = experiment: Clinical isolates, agar double dilution method; assay type: cell-based; conditions: Staphylococcus epidermidis, 115 clinical isolates of S. epidermidis
[12] = system: hemophilus influenzae (37); experiment: Clinical isolates, agar double dilution method; assay type: cell-based; conditions: 37 clinical isolates of hemophilus influenzae
gonococcus (10) = experiment: Clinical isolates, agar double dilution method; assay type: cell-based; conditions: 10 clinical isolates of gonococcus
[13] = system: Chlamydia Trachomatis D/UW-3/Cx; experiment: Chlamydia in vitro MIC, McCoy cells, immunofluorescence; assay type: cell-based; conditions: 48 hours, read-out: MIC
[14] = system: Chlamydia Pneumoniae CWL-029; experiment: Chlamydia in vitro MIC, HEp-2 cells, immunofluorescence; assay type: cell-based; conditions: Chlamydia pneumoniae, 72 h, Chlamydia Pneumoniae CWL-029, HEp-2 cells, read-out: MIC
12 strains of bacteria = experiment: Protective effect on mouse infected with 12 strains of bacteria; assay type: in vivo; conditions: in words
Protocol: as §1, §2, §3

For COC1C(O)CC(=O)OC(C)C/C=C/C=C/C(OC2CCC(N(C)C)C(C)O2)C(C)CC(CC=O)C1OC1OC(C)C(OC2CC(C)(O)C(OC(=O)CC(C)C)C(C)O2)C(N(C)C)C1O (centres unmarked) [Levoisovalerylspiramycin I, levoisovalerylspiramycin I], the LD50 at 1 week ([1]; rat, in vivo, po) was > 4500 mg/kg, the “Mortality rate (%)” value ([1]; rats, oral) was 15% and the mortality ([1]; rats, oral, deaths of 20 animals, observed one week) was 3. For the same compound, the ED50 [2] was 9.51 mg/kg, the ED50 [3] was 9.73 mg/kg and the ED50 [4] was 13.9 mg/kg. For the same compound, the ED50 (staphylococcus aureus12) was 110 mg/kg, the ED50 (staphylococcus aureus16) was 23.5 mg/kg and the ED50 (staphylococcus aureus21 [5]) was 42.7 mg/kg. The ED50 (staphylococcus aureus76) was 24.4 mg/kg, the MIC [6] was 0.06 µg/mL (≈ 0.0647 µM) and the MIC [7] was 0.12 µg/mL (≈ 0.129 µM). The MIC [8] was 0.12 µg/mL (≈ 0.129 µM), the MIC (staphylococcus aureus21 [9]) was 0.5 µg/mL (≈ 0.539 µM) and the MIC50 ([10]; read-out: MIC50) was 0.25 µg/mL (≈ 0.27 µM). For the same compound, the MIC90 ([10]; read-out: MIC90) was 32 µg/mL (≈ 34.5 µM), the MIC50 ([11]; read-out: MIC50) was 1 µg/mL (≈ 1.08 µM) and the MIC90 ([11]; read-out: MIC90) was 64 µg/mL (≈ 69 µM). It also gave an MIC50 (S. epidermidis (115); read-out: MIC50) of 1 µg/mL (≈ 1.08 µM), an MIC90 (S. epidermidis (115); read-out: MIC90) of 32 µg/mL (≈ 34.5 µM) and an MIC range [12] of 0.03 to 32 µg/mL. It also gave an MIC50 ([12]; Haemophilus influenzae, read-out: MIC50) of 0.12 µg/mL (≈ 0.129 µM), an MIC90 ([12]; Haemophilus influenzae, read-out: MIC90) of 1 µg/mL (≈ 1.08 µM) and an MIC range (gonococcus (10)) of 0.12 to 16 µg/mL. It also gave an MIC50 (gonococcus (10); read-out: MIC50) of 1 µg/mL (≈ 1.08 µM), an MIC90 (gonococcus (10); read-out: MIC90) of 4 µg/mL (≈ 4.31 µM) and an MIC [13] of 0.25 µg/mL (≈ 0.27 µM). The MIC [14] was 0.016 µg/mL (≈ 0.0173 µM) and the “protective effect (curative effect) on infected mouse” value (12 strains of bacteria) was “good protective effect”.

From patent US8778896B2, “Levoisovalerylspiramycin I, II or III, preparations, preparation methods and uses thereof” (Shenyang Tonglian Group Co., Ltd., priority 2010, dated 2014)
